Data as given in article PMC7917821, “In Vitro and In Silico Studies of Soluble Epoxide Hydrolase Inhibitors from the Roots of Lycopus lucidus” (Plants, 2021).
Read-outs that look alike come from different tables or passages of the source.

Key:
[1] = molecular target: T1, sEH (Homo sapiens, UniProt P34913); design: method as in PMID 26548595, PMID 32972033, doi:10.1039/C6RA04207D; settings: earlier reports; cited from earlier work
T1 construct: purchased Cayman 10011669
T1 sequence (P34913 1-555): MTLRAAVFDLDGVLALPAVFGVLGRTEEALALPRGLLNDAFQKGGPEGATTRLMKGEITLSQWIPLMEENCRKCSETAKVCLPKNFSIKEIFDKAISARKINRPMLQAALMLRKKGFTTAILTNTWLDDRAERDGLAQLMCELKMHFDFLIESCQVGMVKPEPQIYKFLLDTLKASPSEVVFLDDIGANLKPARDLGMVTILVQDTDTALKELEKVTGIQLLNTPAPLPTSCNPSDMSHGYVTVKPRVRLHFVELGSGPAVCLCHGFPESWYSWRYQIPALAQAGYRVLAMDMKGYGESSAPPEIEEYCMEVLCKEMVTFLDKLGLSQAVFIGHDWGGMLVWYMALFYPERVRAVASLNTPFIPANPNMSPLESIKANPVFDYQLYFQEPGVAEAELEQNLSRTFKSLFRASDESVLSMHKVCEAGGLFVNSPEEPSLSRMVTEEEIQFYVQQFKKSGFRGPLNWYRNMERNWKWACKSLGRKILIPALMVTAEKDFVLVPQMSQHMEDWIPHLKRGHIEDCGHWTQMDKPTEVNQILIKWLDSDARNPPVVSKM

[2] = molecular target: T1, sEH; assay: sEH inhibitory activity assay (fluorometric, PHOME substrate); format: biochemical; settings: for IC50: PHOME substrate, triplicate, mean ± SD; for inhibition at 100 µM: read-out: sEH inhibitory activity
Method: The tests were conducted using a multi plate system of the fluorometric photometer at excitation and emission wavelengths of 330 and 465 nm, respectively. […] To identify potential inhibitors of sEH, all compounds were measured at 100 µM concentration.
(§1) The inhibitory activities on the sEH were measured according to the modified methods in previous papers. PHOME was used as a substrate to examine the inhibitions of sEH, which was determined using a hydrolysis reaction of PHOME. sEH was diluted in Bis Tris–HCl buffer (25 mM containing 0.1 mg/mL BSA, pH 7.0) at 12.15 ng/mL. In a 96-well plate, 130 μL of recombinant human sEH, 20 μL of sample, and 50 μL of 40 mM PHOME were added. The absorbance was measured at excitation filter 330 nm and emission filter 465 nm for 30 min at an interval of 30 s after adding the last solution in a 96-well plate. All assays were performed in triplicate, using microplate reader (Tecan infinite F200, Grödig, Austria). Inhibitory activity (%) was calculated using the following equation:(1) Inhibitory Activity (%)=100−[Δsample / Δcontrol]×100 where Δcontrol and Δsample are the changed fluorescence […], respectively.
The enzyme inhibition parameter IC50 was calculated by fitting hyperbola equations to the data using nonlinear regression of the plot using Sigma Plot (SPP Inc., Chicago, IL, USA.). The experimental results were performed in triplicate, and presented as the means ± SD.

[3] = molecular target: T1, sEH; assay: Enzyme kinetics on sEH (Lineweaver–Burk and Dixon plots); format: biochemical; settings: for Ki: Dixon plot; for sEH inhibition Type: Lineweaver–Burk plots, various substrate concentrations
Method: The enzymatic kinetics of these compounds (7–10) were determined by calculating the initial velocity of each inhibitor at various substrate concentrations (0.19–5 mM) (Figure 2). […] This mixed type had bound to allosteric sites, a site different from the active site. In addition, the inhibitory constant values (Ki) were calculated using the Dixon plot revised from the Lineweaver–Burk plot.
as §1

Compound	sEH inhibitory activity previously shown [1]	IC50 [2] [µM]	inhibition at 100 µM [2] [%]	inhibition at 100 µM ([2]; at 100 µM concentration) [%]	Ki [3] [µM]	sEH inhibition Type [3]
C=C(C)[C@@H]1CC[C@]2(C(=O)O)CC[C@]3(C)[C@H](CC[C@@H]4[C@@]5(C)CC[C@H](O)C(C)(C)[C@@H]5CC[C@]43C)[C@@H]12 [Compound 1, betulinic acid]	significant sEH inhibitory activity	67.8 ± 3.2	> 50			
C[C@H]1[C@H](C)CC[C@]2(C(=O)O)CC[C@]3(C)C(=CC[C@@H]4[C@@]5(C)CC[C@H](O)C(C)(C)[C@@H]5CC[C@]43C)[C@H]12 [Compound 3, ursolic acid]	significant sEH inhibitory activity	42.1 ± 4		> 50		
COC(=O)[C@H](O)Cc1ccc(O)cc1 [Compound 6, latifolicinin C]		52 ± 1.9		> 50		
COC(=O)[C@@H](Cc1ccc(O)c(O)c1)OC(=O)/C=C/c1ccc(O)c(O)c1 [Compound 7, methyl rosmarinate]		16.8 ± 0.6		> 50	9.2	competitive inhibitors
COc1ccc(CCO[C@@H]2O[C@H](CO)[C@@H](OC(=O)/C=C/c3ccc(O)c(OC)c3)[C@H](O[C@@H]3O[C@@H](C)[C@H](O)[C@@H](O)[C@H]3O)[C@H]2O)cc1O [Compound 8, martynoside]	significant sEH inhibitory activity	19.5 ± 4.1		> 50	5.7	mixed type inhibitor
COC(=O)[C@@H](Cc1ccc(O)c(O)c1)OC(=O)/C=C/c1ccc(O)c2c1[C@H](C(=O)OC)[C@@H](c1ccc(O)c(O)c1)O2 [Compound 9, dimethyl lithospermate]		10.6 ± 3.2		> 50	1.9	competitive inhibitors
COC(=O)[C@H]1c2c(/C=C/C(=O)O[C@H](Cc3ccc(O)c(O)c3)C(=O)O)ccc(O)c2O[C@@H]1c1ccc(O)c(O)c1 [Compound 10, 9″″-methyl lithospermate]		35.7 ± 2.1		> 50	7.6	competitive inhibitors
